Publication PMC12406256, “Food Additives Inhibit Intestinal Drug Transporters but Have Limited Effect on In Vitro Drug Permeability” (Molecular Pharmaceutics, 2025)
Where two headings read alike, the source gives them in different places.

Legend:
OATP2B1 [1] = biological target: T1, OATP2B1 (Homo sapiens, UniProt O94956); details: previously characterized inhibitors, ref previous studies, cited from earlier work; for Ki: read-out: K i, OATP2B1
T1 construct: expressed in transfected cells; host or cells: HEK293 cells (ATCC) transduced with recombinant OATP2B1 baculovirus
T1 sequence (O94956 1-709): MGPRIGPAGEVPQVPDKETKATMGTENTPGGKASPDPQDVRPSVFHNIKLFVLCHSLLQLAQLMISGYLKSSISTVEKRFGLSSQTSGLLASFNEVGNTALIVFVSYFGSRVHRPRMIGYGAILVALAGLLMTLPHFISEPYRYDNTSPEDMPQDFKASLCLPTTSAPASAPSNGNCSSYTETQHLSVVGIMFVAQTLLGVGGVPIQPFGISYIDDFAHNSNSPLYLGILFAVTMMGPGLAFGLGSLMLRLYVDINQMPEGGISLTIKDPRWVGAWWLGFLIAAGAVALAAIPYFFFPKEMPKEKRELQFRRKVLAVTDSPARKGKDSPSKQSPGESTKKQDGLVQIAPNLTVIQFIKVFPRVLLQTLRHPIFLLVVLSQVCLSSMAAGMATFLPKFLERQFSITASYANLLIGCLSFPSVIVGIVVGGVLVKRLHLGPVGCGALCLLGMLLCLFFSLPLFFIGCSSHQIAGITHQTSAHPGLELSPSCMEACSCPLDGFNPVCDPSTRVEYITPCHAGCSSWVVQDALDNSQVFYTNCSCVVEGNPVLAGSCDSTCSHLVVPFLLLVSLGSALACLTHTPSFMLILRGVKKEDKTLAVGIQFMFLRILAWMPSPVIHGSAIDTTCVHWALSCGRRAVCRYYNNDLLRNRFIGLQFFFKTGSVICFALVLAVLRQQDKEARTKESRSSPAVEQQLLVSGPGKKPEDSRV

OATP2B1 [2] = tested on: OATP2B1; design: method as in Zou et al.; details: 25 mg/kg; P-gp-deficient mice; ref Zou et al.; cited from earlier work
MRP2 [3] = biological target: T2, MRP2 (Homo sapiens, UniProt Q92887); design: method as in previous studies; details: previously characterized inhibitors; ref previous studies; read-out: IC50 (95% CI), MRP2; cited from earlier work
T2 construct: made in house; host or cells: Spodoptera frugiperda Sf9 cells, crude membrane vesicles

Caco-2 cells [4] = test: in vitro; details: for effect on sulfasalazine permeability (P app): Caco-2
Procedure: (§1) Caco-2 cells were cultured on 12-well Transwell polycarbonate membrane inserts with a 0.4 μm pore size (Corning Incorporated, Kennebunk, ME) at 37 °C and 5% CO2 for 21–24 days prior to the experiment as described in Hubatsch et al. The culture medium (DMEM, 10% FBS, 1% MEM nonessential amino acids, 100 U/mL penicillin–streptomycin) was changed every second day. Transepithelial electrical resistance (TEER) was measured before and after the permeability assay with a Millicell-ERS electrode (Millipore, Bedford, MA) attached to an epithelial volt ohm meter (EVOM, World Precision Instruments, Sarasota, FL). The permeability assay was performed according to a previously published protocol. […] Sulfasalazine is a substrate of BCRP and OATP2B1. , The DMSO concentration was 0.45–1.5%. Before the experiment, inserts were washed and preincubated in the transport buffer for 20 min shaking at 37 °C. Sulfasalazine and LY permeability was measured in the apical to basolateral direction at five time points (20, 40, 60, 90, and 120 min) and, additionally, in the basolateral to apical direction to calculate the efflux ratio. […] […] LY (250 μM) was added on the donor side of all inserts to measure the integrity of the cell monolayer. Before analysis, samples were centrifuged at 2755g for 30 min, and donor solution and mass balance samples were diluted 1:100. LY fluorescence was measured with a Varioskan LUX microplate reader (Thermo Fisher Scientific) at 430 nm excitation and 538 nm emission. Sulfasalazine was analyzed with ultra-performance liquid chromatography (UPLC) using a Syncronis C18 column (1.7 μm particle size, 50 × 2.1 mm + 0.2 μm Waters online filter) (Thermo Fisher Scientific) coupled with Waters Acquity UPLC interfaced with a PDA detector both controlled by the Waters Empower software version 3. The UPLC was operated in gradient mode at 354 nm. Solvents were 0.015 M phosphate buffer pH 2 (A), acetonitrile (B), 1:1 acetonitrile/methanol (strong needle wash), and 20% acetonitrile (weak needle wash). Column temperature was 30 °C, injection volume was 10 μL, retention time was 1.46 min, and flow rate was 0.5 mL/min. The gradient was 25% B → 70% B (0–3 min), 70% B → 25% B (3.00–3.01 min), and 25% B (3.01–4 min). The data were collected for the first 180 s of each UPLC run.
(§2) In the Caco-2 permeability assay, the apparent permeability (P app) of sulfasalazine was calculated using the following equation: Papp=(dQ/dt)(1/A×C0) where dQ/dt is the rate of permeation across the cells (nmol/min), A is the surface area of the filter (1.12 cm^2), and C 0 is the initial concentration in the donor chamber (μM). The efflux ratio of sulfasalazine was calculated by dividing the P app in the basolateral to the apical direction by the P app in the apical to basolateral direction. The TEER for each cell insert was calculated before and after the experiment by multiplying the mean resistance of three measurements by the surface area of the filter (1.12 cm^2). Mass balance was calculated by dividing the […]. All experiments were done in triplicate wells, and the IC50 and Caco-2 permeability assays were repeated three times.

[5] = design: method as in not given; details: rats; ref not given; cited from earlier work
Caco-2 cells [6] = tested on: Caco-2 cells; design: method as in not given; details: ref not given; cited from earlier work
BCRP [7] = biological target: T3, BCRP (Homo sapiens, UniProt Q9UNQ0); details: read-out: IC50 (95% CI), BCRP; previously characterized inhibitors; ref previous studies; cited from earlier work
T3 sequence (Q9UNQ0 1-655): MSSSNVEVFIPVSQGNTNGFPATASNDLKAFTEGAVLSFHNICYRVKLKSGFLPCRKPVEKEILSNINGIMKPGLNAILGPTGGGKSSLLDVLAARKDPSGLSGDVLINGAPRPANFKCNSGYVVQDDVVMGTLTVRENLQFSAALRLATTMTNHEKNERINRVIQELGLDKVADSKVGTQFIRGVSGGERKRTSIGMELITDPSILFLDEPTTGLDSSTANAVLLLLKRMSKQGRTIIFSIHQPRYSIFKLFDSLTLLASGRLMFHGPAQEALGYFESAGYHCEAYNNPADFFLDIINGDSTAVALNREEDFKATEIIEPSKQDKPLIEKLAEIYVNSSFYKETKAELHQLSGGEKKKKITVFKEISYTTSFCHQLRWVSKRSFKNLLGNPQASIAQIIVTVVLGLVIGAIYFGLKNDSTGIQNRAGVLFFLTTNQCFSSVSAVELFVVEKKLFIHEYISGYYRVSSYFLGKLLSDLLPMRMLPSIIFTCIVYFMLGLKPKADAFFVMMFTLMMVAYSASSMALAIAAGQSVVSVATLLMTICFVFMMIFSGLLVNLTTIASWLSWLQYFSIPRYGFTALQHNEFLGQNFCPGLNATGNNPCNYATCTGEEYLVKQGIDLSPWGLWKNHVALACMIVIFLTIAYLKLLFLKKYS

MRP2 [8] = biological target: T2, MRP2; test: Vesicular transport assay, MRP2 (CDCF substrate); assay type: biochemical; details: food additive 50 μM; CDCF 5 μM; n = 1
Procedure: Transport inhibition by 22 food additives was tested with Spodoptera frugiperda (Sf9) derived crude membrane vesicles expressing BCRP, MRP2, or P-gp produced in-house. […] Vesicles (50 μg total protein/well) were diluted in an assay buffer (40 mM MOPS–Tris pH 7.0, 60 mM KCl, and 6 mM MgCl2) with the substrate, and food additives (final concentration of 50 μM) in DMSO were added to the mixture. After preincubation, either the assay buffer or Mg-ATP solution (final concentration 4 mM) was added to the plate to start the reaction. The plate was incubated at 37 °C, and the reaction was stopped with an ice-cold washing mixture (40 mM MOPS-Tris pH 7.0 and 70 mM KCl). Samples were moved to a MultiScreenHTS-FB Plate Glass fiber 1.0 μm/0.65 μm Durapore filter plate (Millipore, USA), and the wells were washed five times with the ice-cold washing mixture. For BCRP and MRP2, the fluorescent substrate was eluted from the filters with 100 μL 0.1 M NaOH. […] The amount of the substrate accumulated into the vesicles was measured by fluorescent detection using a Varioskan LUX microplate reader (Thermo Fisher Scientific, Finland) (Table ).
(§3) For the efflux transporters, the relative transport was calculated as relativetransport(%ofcontrol)=transportinh,ATP−transportinh,noATP/transportDMSO,ATP−transportDMSO,noATP×100% where transportinh,ATP and transportinh,no ATP are the transport rates in the presence of food additives with or without ATP, respectively, and transportDMSO,ATP and transportDMSO,no ATP are the corresponding transport rates in the presence of the vehicle (DMSO) with or without ATP.
(§4) The half-maximal inhibitory concentrations (IC50) were calculated with GraphPad Prism version 9.0.2 (GraphPad Software, San Diego, CA) using nonlinear regression that fits the data to a four-parameter dose–response curve: relativetransport=minimum+maximum−minimum/1+([I]/IC50)^h where minimum and maximum describe the plateaus of minimal and maximal relative transport (%), [I] is the concentration of inhibitor, and h is the Hill slope, which describes the steepness of the slope.

OATP2B1 [9] = biological target: T1, OATP2B1; test: HEK293 uptake assay, OATP2B1 (5-carboxyfluorescein substrate); assay type: cell-based; details: human, HEK293 cells transduced with recombinant OATP2B1 baculovirus, pH 6, probe 5-carboxyfluorescein 2 μM, food additive 50 μM, n = 1, read-out: inhibition of OATP2B1-mediated uptake
Procedure: The inhibition of OATP2B1 was studied using a HEK293 cell-based uptake assay. HEK293 cells were cultured in DMEM supplemented with 10% FBS at 37 °C and 5% CO2 and seeded at 22,500 cells/well on 96-well plates coated with 0.1 mg/mL poly-D-lysine. After 24 h, the medium was replaced with a transduction mix (DMEM with 10% FBS, 5 mM sodium butyrate, and recombinant OATP2B1 or enhanced yellow fluorescent protein [eYFP, negative control] baculoviruses). The baculoviruses were produced as previously described. The uptake assay was performed after approximately 48 h. […] Test solutions also contained the substrate. Cells were washed with warm transport buffer and preincubated at 37 °C. Preincubation solutions were replaced with test solutions and incubated at 37 °C with shaking at 250 rpm. Transport was terminated by aspirating the test solution and washing the wells with an ice-cold transport buffer (150 μL) three times. Wells were left to dry, and cells were lysed with 0.1 M NaOH. […] Total protein concentration was measured from six random wells with a Pierce Coomassie (Bradford) Assay kit (Thermo Fisher Scientific) to ensure a similar protein concentration in the OATP2B1 and eYFP wells.

P-gp = P-gp (Homo sapiens, UniProt P08183); test: Vesicular transport assay, P-gp (N-methyl-quinidine substrate); details: food additive 50 μM; N-methyl-quinidine 2 μM; n = 1
Procedure: (§5) Transport inhibition by 22 food additives was tested with Spodoptera frugiperda (Sf9) derived crude membrane vesicles expressing BCRP, MRP2, or P-gp produced in-house. […] Vesicles (50 μg total protein/well) were diluted in an assay buffer (40 mM MOPS–Tris pH 7.0, 60 mM KCl, and 6 mM MgCl2) with the substrate, and food additives (final concentration of 50 μM) in DMSO were added to the mixture. After preincubation, either the assay buffer or Mg-ATP solution (final concentration 4 mM) was added to the plate to start the reaction. The plate was incubated at 37 °C, and the reaction was stopped with an ice-cold washing mixture (40 mM MOPS-Tris pH 7.0 and 70 mM KCl). Samples were moved to a MultiScreenHTS-FB Plate Glass fiber 1.0 μm/0.65 μm Durapore filter plate (Millipore, USA), and the wells were washed five times with the ice-cold washing mixture. For BCRP and MRP2, the fluorescent substrate was eluted from the filters with 100 μL 0.1 M NaOH. For LY samples, an equal volume of 0.1 M HCl was added to neutralize the samples before fluorescence measurement. The amount of the substrate accumulated into the vesicles was measured by fluorescent detection using a Varioskan LUX microplate reader (Thermo Fisher Scientific, Finland) (Table ). The accumulation into the P-gp vesicles was measured with high-performance liquid chromatography (HPLC) (Agilent 110 series, Agilent Technologies, USA) after lysis and elution of the vesicle contents with 100 μL 3:1 methanol/water + 0.1% formic acid. The column used was a Poroshell 120 EC-C18 with a size of 4.6 × 100 mm and 2.7 μm particle size. Eluent A was 0.1% formic acid, and eluent B was acetonitrile. The flow rate of eluent was 1 mL/min, and the injection volume of samples was 10 μL. […] The retention time for NMQ was around 2.5 min.
as §3, §4

BCRP [10] = biological target: T3, BCRP; test: Vesicular transport assay, BCRP (Lucifer yellow substrate); assay type: biochemical; design: made in house; host or cells: Spodoptera frugiperda Sf9 cells, crude membrane vesicles; details: Sf9-derived crude membrane vesicles expressing BCRP, pH 7, probe Lucifer yellow 50 μM, food additive 50 μM, n = 1, read-out: inhibition of BCRP substrate accumulation
Procedure: as §5, §3, §4

in vitro = details: human, Caco-2, pH 7.4
Procedure: as §1, §2

[11] = pH 5.5, read-out: IC50, OATP2B1, pH 5.5
[12] = pH 7.4, read-out: IC50, OATP2B1, pH 7.4

T2 sequence (Q92887 whole entry): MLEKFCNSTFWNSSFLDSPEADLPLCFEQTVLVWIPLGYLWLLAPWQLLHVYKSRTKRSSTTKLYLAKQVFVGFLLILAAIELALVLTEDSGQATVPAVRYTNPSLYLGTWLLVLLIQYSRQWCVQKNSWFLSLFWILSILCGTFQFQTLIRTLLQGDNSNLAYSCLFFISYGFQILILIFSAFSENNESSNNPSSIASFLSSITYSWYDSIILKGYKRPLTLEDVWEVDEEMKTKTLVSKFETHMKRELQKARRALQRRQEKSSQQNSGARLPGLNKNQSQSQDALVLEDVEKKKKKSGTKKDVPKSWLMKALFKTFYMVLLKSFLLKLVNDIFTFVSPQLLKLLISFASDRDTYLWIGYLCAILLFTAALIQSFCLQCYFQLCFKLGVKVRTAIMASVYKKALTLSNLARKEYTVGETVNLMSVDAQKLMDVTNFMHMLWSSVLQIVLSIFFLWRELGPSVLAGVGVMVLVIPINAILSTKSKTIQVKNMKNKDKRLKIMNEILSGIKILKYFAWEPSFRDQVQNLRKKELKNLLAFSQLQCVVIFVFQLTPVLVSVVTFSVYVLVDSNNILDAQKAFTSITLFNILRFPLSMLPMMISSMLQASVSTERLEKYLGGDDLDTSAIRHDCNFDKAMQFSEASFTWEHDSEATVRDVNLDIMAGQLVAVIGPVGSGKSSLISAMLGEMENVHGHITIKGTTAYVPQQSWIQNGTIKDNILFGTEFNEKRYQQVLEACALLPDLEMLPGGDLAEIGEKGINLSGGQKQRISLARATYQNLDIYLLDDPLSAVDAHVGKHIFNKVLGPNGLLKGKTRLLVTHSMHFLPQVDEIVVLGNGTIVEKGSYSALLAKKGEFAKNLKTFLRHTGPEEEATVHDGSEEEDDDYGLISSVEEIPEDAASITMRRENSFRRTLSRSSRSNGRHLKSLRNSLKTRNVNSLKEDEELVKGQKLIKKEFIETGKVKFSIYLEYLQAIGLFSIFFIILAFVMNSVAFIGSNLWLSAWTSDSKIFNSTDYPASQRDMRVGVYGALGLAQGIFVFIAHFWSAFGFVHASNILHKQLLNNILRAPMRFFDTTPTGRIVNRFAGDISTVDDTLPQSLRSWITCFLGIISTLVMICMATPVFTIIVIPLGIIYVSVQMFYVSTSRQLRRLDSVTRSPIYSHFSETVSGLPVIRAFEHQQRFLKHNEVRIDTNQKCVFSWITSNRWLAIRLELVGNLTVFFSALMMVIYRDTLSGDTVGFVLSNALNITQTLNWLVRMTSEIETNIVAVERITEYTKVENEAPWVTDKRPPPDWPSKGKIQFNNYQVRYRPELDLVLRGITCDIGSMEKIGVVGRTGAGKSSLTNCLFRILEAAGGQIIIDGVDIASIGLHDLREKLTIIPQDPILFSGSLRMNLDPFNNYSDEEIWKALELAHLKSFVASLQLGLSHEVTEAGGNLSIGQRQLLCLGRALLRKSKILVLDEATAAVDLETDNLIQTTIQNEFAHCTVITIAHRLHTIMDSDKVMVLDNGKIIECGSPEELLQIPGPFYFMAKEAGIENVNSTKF
Sequence of P-gp (P08183 whole entry): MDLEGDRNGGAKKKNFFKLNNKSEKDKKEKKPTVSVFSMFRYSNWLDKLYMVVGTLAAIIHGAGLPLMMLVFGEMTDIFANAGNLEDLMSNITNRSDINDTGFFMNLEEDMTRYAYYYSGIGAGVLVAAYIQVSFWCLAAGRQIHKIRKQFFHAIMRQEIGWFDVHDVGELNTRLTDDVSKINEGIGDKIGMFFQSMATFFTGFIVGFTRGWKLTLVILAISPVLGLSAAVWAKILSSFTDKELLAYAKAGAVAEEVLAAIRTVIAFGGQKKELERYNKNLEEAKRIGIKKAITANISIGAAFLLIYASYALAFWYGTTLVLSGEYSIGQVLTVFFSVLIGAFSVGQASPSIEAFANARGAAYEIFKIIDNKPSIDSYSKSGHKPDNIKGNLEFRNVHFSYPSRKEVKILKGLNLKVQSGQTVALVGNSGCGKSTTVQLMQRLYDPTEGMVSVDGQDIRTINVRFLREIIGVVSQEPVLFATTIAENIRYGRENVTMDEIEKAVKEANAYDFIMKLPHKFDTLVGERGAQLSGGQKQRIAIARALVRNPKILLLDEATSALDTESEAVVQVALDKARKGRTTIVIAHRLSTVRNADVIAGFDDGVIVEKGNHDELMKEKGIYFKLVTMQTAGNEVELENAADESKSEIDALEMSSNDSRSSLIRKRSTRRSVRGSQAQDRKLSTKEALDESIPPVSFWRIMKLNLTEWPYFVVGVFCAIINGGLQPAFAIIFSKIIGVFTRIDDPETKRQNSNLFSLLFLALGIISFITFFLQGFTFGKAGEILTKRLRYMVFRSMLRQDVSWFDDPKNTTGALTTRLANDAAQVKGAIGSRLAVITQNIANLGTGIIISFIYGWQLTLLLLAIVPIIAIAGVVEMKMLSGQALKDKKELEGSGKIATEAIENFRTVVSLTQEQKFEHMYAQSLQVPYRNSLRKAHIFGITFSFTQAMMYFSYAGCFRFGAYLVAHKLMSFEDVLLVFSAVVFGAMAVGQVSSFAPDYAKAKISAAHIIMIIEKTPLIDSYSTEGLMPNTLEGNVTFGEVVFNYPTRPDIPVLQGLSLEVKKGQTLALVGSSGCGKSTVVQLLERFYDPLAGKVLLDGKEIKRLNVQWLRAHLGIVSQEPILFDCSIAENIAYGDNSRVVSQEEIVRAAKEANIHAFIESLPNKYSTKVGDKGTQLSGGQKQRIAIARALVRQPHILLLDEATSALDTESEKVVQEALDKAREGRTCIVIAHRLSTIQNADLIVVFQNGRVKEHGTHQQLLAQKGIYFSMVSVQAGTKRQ

SMILES | IC50 (OATP2B1 [1]; [11]) | IC50 (OATP2B1 [1]; [12]) | Ki (OATP2B1 [1]) | IC50 (MRP2 [3]) | effect on sulfasalazine permeability (P app) (Caco-2 cells [4]) | IC50 (BCRP [7]) | further results
COc1cc(S(=O)(=O)[O-])c(C)cc1N=Nc1c(O)ccc2cc(S(=O)(=O)[O-])ccc12.[Na+].[Na+] [allura red AC] | 1.6 µM | 0.8 µM | 2.59 µM | 20 µM | None of the selected food additives showed any effect |  | effect on fexofenadine plasma levels (OATP2B1 inhibition) (OATP2B1 [2]): decreases fexofenadine plasma levels
COc1ccc(CCC(=O)c2c(O)cc(O[C@@H]3O[C@H](CO)[C@@H](O)[C@H](O)[C@H]3O[C@@H]3O[C@@H](C)[C@H](O)[C@@H](O)[C@H]3O)cc2O)cc1O [neohesperidin DC] | 15.5 µM | 48.6 µM | 20.1 µM |  | None of the selected food additives showed any effect | 0.86 µM | oral bioavailability [5]: ~20%; P app in Caco-2 cells (Caco-2 cells [6]): < 6 × 10^–6 cm/s
O=S(=O)([O-])c1ccc(N=Nc2cc(S(=O)(=O)[O-])c3ccccc3c2O)c2ccccc12.[Na+].[Na+] [carmoisine] | 2.9 µM | 9.7 µM |  | 29 µM | None of the selected food additives showed any effect | 5.38 µM | sulfasalazine P app fold change (Caco-2 cells [4]; food additive 200 μM on both sides of the cell monolayer): ≤ 2
CCN(Cc1cccc(S(=O)(=O)[O-])c1)c1ccc(C(=C2C=CC(=[N+](CC)Cc3cccc(S(=O)(=O)[O-])c3)C=C2)c2ccccc2S(=O)(=O)[O-])cc1.[Na+].[Na+] [brilliant blue FCF] | 18.4 µM |  | 13 µM | 3.22 µM | None of the selected food additives showed any effect | 1.97 µM | 
CCCCCCCCOC(=O)c1cc(O)c(O)c(O)c1 [octyl gallate] |  |  |  | 19.2 µM |  | 10 µM | inhibition of MRP2 substrate accumulation (MRP2 [8]): did not inhibit; inhibition at 50 μM (OATP2B1 [9]): ≥ 50%; inhibition of P-gp substrate accumulation (P-gp): did not inhibit; inhibition at 50 μM (BCRP [10]): ≥ 50%
O=C(O)c1cc(/N=N/c2ccc(S(=O)(=O)Nc3ccccn3)cc2)ccc1O [sulfasalazine, reference compound] |  |  |  |  |  |  | Papp A→B at 120 min, 500 μM (in vitro): ≤ 0.1 ×10⁻⁶ cm/s; Papp B→A at 120 min, 500 μM (in vitro): ~6.5 ×10⁻⁶ cm/s; efflux ratio at 120 min, 500 μM (in vitro): > 70
